Measurements reported in patent US20220280457A1, “ORAL PHARMACEUTICAL IMMEDIATE RELEASE COMPOSITION AND METHOD OF TREATMENT FOR WEIGHT LOSS” (AARDVARK THERAPEUTICS INC., priority 2019, published 2022).

Experiments:
[1] = tested on: C57BL/6NTad mice, diet-induced obesity (DIO) mouse model; test: 56-day diet-induced obesity (DIO) mouse weight loss study, DA versus DB (Example 3); format: in vivo; conditions: DA 23.1 mg/kg BID PO
From the text: The 56-day study determined the behavioral effects of bitter taste receptor agonists denatonium acetate (DA) compared to denatonium benzoate (DB) in a diet-induced obesity (DIO) mouse model. […] The study duration was a 3-5 day acclimation period +28 day study period and 2-3 day testing period after study. […] The mice were C57BL/6NTad mice at least 12 weeks in age and 15 mice per group (low dose DA, higher dose DA, high dose DB and control). […] Metabolic biomarkers (blood glucose, blood insulin, blood HbA1c) were measured at the beginning and end of the study. The DA, DB or distilled water control was administered per ostium gavage (PO) at a volume of 5 mL/kg body weight.

male SD rats = test: Single oral dose, 24-hour cumulative food intake study in rats (Example 6, first in vivo study); parameters: species or system rat; conditions: for Cumulative food intake as compared with vehicle: all indicated time intervals, DA 23.1 mg/kg, DB 26.8 mg/kg
Description: This example compares efficacy of DA versus DB in food inhibition and body weight control. As a background, according to Avau et al., Sci. Rep. […] In our first in vivo study, 45 male SD rats (purchased from Envigo at 8-10 weeks of age) were divided into three groups (15 in each group), which were administered a single oral dose of vehicle (distilled water), 26.8 mg/kg of DB, or 23.1 mg/kg of DA respectively, with a 24-hour observational period, to compare the efficacy of DB versus DA in reducing food intake.

male C57BL/6N DIO mice = test: 56-day BID treatment of DIO mice: food consumption and body weight (Example 6, second in vivo study); parameters: species or system mouse; conditions: for Body weight gain as compared to vehicle treatment: high-fat diet, oral BID 56 days
Description: In a second in vivo study, 45 male C57BL/6N DIO mice (purchased from Envigo at 18 weeks of age, fed with high-fat diet) were divided into three groups (15 in each group), which were orally administered vehicle (distilled water), 26.8 mg/kg of DB, or 23.1 mg/kg of DA respectively, twice daily (BID), with a 56-day treatment period to compare the efficacy of DB versus DA in food intake reduction and body weight control. Briefly, once weekly, the food weight for each cage was recorded at 0 hour and then 24 hours later, permitting calculation of food consumption for that 24-hour interval. In addition, starting from Day 0, the mice were weighed three times weekly (every 2-3 days).
The mean food consumption per animal for 24-hour intervals at indicated measurement days during the treatment period are shown in Table.
The mean absolute body weight change (in grams) and normalized body weight change (% of baseline) during 56-day treatment period of the three treatment groups are presented in […]. and Table 6.

healthy volunteers = conditions: cited from earlier work
rodent obesity models = conditions: benzoate salt of denatonium; cited from earlier work
[2] = oral BID, DA 23.1 mg/kg or DB 26.8 mg/kg

CC(=O)[O-].CC[N+](CC)(CC(=O)Nc1c(C)cccc1C)Cc1ccccc1 [DA, Denatonium acetate]
Average body weights at the indicated days (FIG. 1) ([1]; 56 days): lowest average body weights
Serum insulin at the end of the 56 day study (FIG. 3) ([1]; versus pre-treatment baseline and vehicle): close to baseline value (i.e., pre-treatment) and noticeably lower compared to the vehicle-treated group
Food intake reduction, DA versus DB (male SD rats; 23.1 mg/kg DA (57.4 μmol/kg) vs 26.8 mg/kg DB (60 μmol/kg)): a greater food intake reduction
Cumulative food intake as compared with vehicle (male SD rats): reduced cumulative food intake
Body weight gain, DA versus DB (male C57BL/6N DIO mice; Day 34 to Day 56, 23.1 mg/kg DA vs 26.8 mg/kg DB): body weight gain was less
Food consumption, DA versus DB (male C57BL/6N DIO mice; all indicated measurement days except for Day 42, 23.1 mg/kg DA vs 26.8 mg/kg DB): food consumption was less
Body weight gain as compared to vehicle treatment (male C57BL/6N DIO mice; DA 23.1 mg/kg, DB 26.8 mg/kg): less body weight gain
Food consumption compared to vehicle-dosed mice (male C57BL/6N DIO mice; oral BID, 56 days, DA 23.1 mg/kg, DB 26.8 mg/kg): nominally decreased food consumption
Mean normalized body weight (% of baseline) on study day 0 (male C57BL/6N DIO mice; [2]): 100.0 % of baseline
Mean normalized body weight (% of baseline) on study day 25 (male C57BL/6N DIO mice; [2]): 100.0 % of baseline
Mean normalized body weight (% of baseline) on study day 28 (male C57BL/6N DIO mice; [2]): 100.0 % of baseline
Mean normalized body weight (% of baseline) on study day 30 (male C57BL/6N DIO mice; [2]): 100.0 % of baseline

CC[N+](CC)(CC(=O)Nc1c(C)cccc1C)Cc1ccccc1.O=C([O-])c1ccccc1 [DB, benzyl-[2-(2,6-dimethylanilino)-2-oxoethyl]-diethylazanium benzoate]
Cumulative food intake as compared with vehicle (male SD rats): reduced cumulative food intake
Nutrient volume tolerance and satiation (healthy volunteers; 1 μmol/kg DB): decreased nutrient volume tolerance and increased satiation
Gastric motility, nutrient volume tolerance, hunger ratings and satiation (healthy volunteers; intragastric administration): attenuated inter-digestive gastric motility, reduced nutrient volume tolerance, decreased hunger ratings, and increased satiation post meal
Food intake and weight gain in rodent obesity models (rodent obesity models): suppressed food intake and inhibited weight gain
Body weight gain as compared to vehicle treatment (male C57BL/6N DIO mice; DA 23.1 mg/kg, DB 26.8 mg/kg): less body weight gain
Mean normalized body weight (% of baseline) on study day 0 (male C57BL/6N DIO mice; [2]): 100.0 % of baseline
Mean normalized body weight (% of baseline) on study day 4 (male C57BL/6N DIO mice; oral BID, DA 23.1 mg/kg or DB 26.8 mg/kg, day 4): 100.5 % of baseline
Mean normalized body weight (% of baseline) on study day 7 (male C57BL/6N DIO mice; oral BID, DA 23.1 mg/kg or DB 26.8 mg/kg, day 7): 99.7 % of baseline
Mean normalized body weight (% of baseline) on study day 9 (male C57BL/6N DIO mice; oral BID, DA 23.1 mg/kg or DB 26.8 mg/kg, day 9): 99.4 % of baseline
Mean normalized body weight (% of baseline) on study day 11 (male C57BL/6N DIO mice; oral BID, DA 23.1 mg/kg or DB 26.8 mg/kg, day 11): 99.0 % of baseline
Mean normalized body weight (% of baseline) on study day 14 (male C57BL/6N DIO mice; oral BID, DA 23.1 mg/kg or DB 26.8 mg/kg, day 14): 99.3 % of baseline
Mean normalized body weight (% of baseline) on study day 16 (male C57BL/6N DIO mice; oral BID, DA 23.1 mg/kg or DB 26.8 mg/kg, day 16): 98.0 % of baseline
Mean normalized body weight (% of baseline) on study day 18 (male C57BL/6N DIO mice; oral BID, DA 23.1 mg/kg or DB 26.8 mg/kg, day 18): 97.9 % of baseline
Mean normalized body weight (% of baseline) on study day 21 (male C57BL/6N DIO mice; oral BID, DA 23.1 mg/kg or DB 26.8 mg/kg, day 21): 99.5 % of baseline
Mean normalized body weight (% of baseline) on study day 23 (male C57BL/6N DIO mice; oral BID, DA 23.1 mg/kg or DB 26.8 mg/kg, day 23): 100.5 % of baseline
Mean normalized body weight (% of baseline) on study day 25 (male C57BL/6N DIO mice; [2]): 100.3 % of baseline
Mean normalized body weight (% of baseline) on study day 28 (male C57BL/6N DIO mice; [2]): 100.2 % of baseline
Mean normalized body weight (% of baseline) on study day 30 (male C57BL/6N DIO mice; [2]): 100.5 % of baseline
Mean normalized body weight (% of baseline) on study day 32 (male C57BL/6N DIO mice; oral BID, DA 23.1 mg/kg or DB 26.8 mg/kg, day 32): 102.8 % of baseline
Mean normalized body weight (% of baseline) on study day 34 (male C57BL/6N DIO mice; oral BID, DA 23.1 mg/kg or DB 26.8 mg/kg, day 34): 103.6 % of baseline
Mean normalized body weight (% of baseline) on study day 36 (male C57BL/6N DIO mice; oral BID, DA 23.1 mg/kg or DB 26.8 mg/kg, day 36): 104.1 % of baseline
Mean normalized body weight (% of baseline) on study day 39 (male C57BL/6N DIO mice; oral BID, DA 23.1 mg/kg or DB 26.8 mg/kg, day 39): 104.7 % of baseline
Mean normalized body weight (% of baseline) on study day 41 (male C57BL/6N DIO mice; oral BID, DA 23.1 mg/kg or DB 26.8 mg/kg, day 41): 105.3 % of baseline
Mean normalized body weight (% of baseline) on study day 46 (male C57BL/6N DIO mice; oral BID, DA 23.1 mg/kg or DB 26.8 mg/kg, day 46): 106.0 % of baseline
Mean normalized body weight (% of baseline) on study day 49 (male C57BL/6N DIO mice; oral BID, DA 23.1 mg/kg or DB 26.8 mg/kg, day 49): 107.8 % of baseline
Mean normalized body weight (% of baseline) on study day 51 (male C57BL/6N DIO mice; oral BID, DA 23.1 mg/kg or DB 26.8 mg/kg, day 51): 107.8 % of baseline
Mean normalized body weight (% of baseline) on study day 53 (male C57BL/6N DIO mice; oral BID, DA 23.1 mg/kg or DB 26.8 mg/kg, day 53): 107.4 % of baseline
Mean normalized body weight (% of baseline) on study day 56 (male C57BL/6N DIO mice; oral BID, DA 23.1 mg/kg or DB 26.8 mg/kg, day 56): 108.4 % of baseline
